Columns and labels:
Test in all cases: Test on herbicidal activity by foliar application
Type in all cases: in vivo
Settings in all cases: foliar spray, 1 kg/ha, plants at 1-2 leaf stage in pots, evaluated 14 days after spraying
Bidens pilosa = test system: Bidens pilosa
Experimental: (§1) Test on Herbicidal Activity by Foliar Application: Herbicidal solutions of each test compounds, which were prepared by dissolving at predetermined concentrations such a wettable powder of the test compound as that described in the above Formulation Example, were sprayed at dosages of 1 kg/ha over foliar parts of Amaranthus retroflexus, Bidens pilosa, Sinapis arvensis, Stellaria media, Solanum nigrum, Abutilon theophrasti, Convolvulus arvensis, Matricaria chamomilla, Galium aparine, Veronica hederaefolia, and Setaria viridis (each test plant is 1-2 leaf stage) which were grown in pots. 14 days latter after spraying, its herbicidal activity was evaluated in accordance with the below-described system. Herbicidal Activity 1: less than 30% inhibition 2: 30% or more-50% inhibition 3: 50% or more-70% inhibition 4: 70% or more-90% inhibition 5: 90% or more inhibition

Convolvulus arvensis = test system: Convolvulus arvensis
Experimental: as §1

Sinapis arvensis = test system: Sinapis arvensis
Experimental: as §1

Veronica hederaefolia = test system: Veronica hederaefolia
Experimental: as §1

Galium aparine = test system: Galium aparine
Experimental: as §1

Setaria viridis = test system: Setaria viridis
Experimental: as §1

Stellaria media = test system: Stellaria media
Experimental: as §1

Amaranthus retroflexus = test system: Amaranthus retroflexus
Experimental: as §1

Solanum nigrum = test system: Solanum nigrum
Experimental: as §1

Abutilon theophrasti = test system: Abutilon theophrasti
Experimental: as §1

Matricaria chamomilla = test system: Matricaria chamomilla
Experimental: as §1

SMILES | Herbicidal activity, Bidens pilosa (Bidens pilosa) | Herbicidal activity, Convolvulus arvensis (Convolvulus arvensis) | Herbicidal activity, Sinapis arvensis (Sinapis arvensis) | Herbicidal activity, Veronica hederaefolia (Veronica hederaefolia) | Herbicidal activity, Galium aparine (Galium aparine) | Herbicidal activity, Setaria viridis (Setaria viridis) | Herbicidal activity, Stellaria media (Stellaria media) | Herbicidal activity, Amaranthus retroflexus (Amaranthus retroflexus) | Herbicidal activity, Solanum nigrum (Solanum nigrum) | Herbicidal activity, Abutilon theophrasti (Abutilon theophrasti) | Herbicidal activity, Matricaria chamomilla (Matricaria chamomilla)
O=C(NS(=O)(=O)c1c(Cl)cccc1Cl)c1cc(Cl)cc(Cl)n1 [Compound I-557, 4,6-Dichloro-N-[(2,6-Dichlorophenyl)sulfonyl]-pyridine-2-carboxamide] | 5 (90% or more inhibition) | 5 (90% or more inhibition) | 5 (90% or more inhibition) | 5 (90% or more inhibition) | 5 (90% or more inhibition) | 5 (90% or more inhibition) | 5 (90% or more inhibition) | 5 (90% or more inhibition) | 5 (90% or more inhibition) | 5 (90% or more inhibition) | 5 (90% or more inhibition)
COc1cc(Cl)cc(C(=O)NS(=O)(=O)c2c(Cl)cccc2Cl)n1 [Compound I-581, N-[(2,6-Dichlorophenyl)sulfonyl]-4-chloro-6-methoxy-2-pyridinecarboxamide] | 5 (90% or more inhibition) | 4 (70% or more-90% inhibition) | 5 (90% or more inhibition) | 4 (70% or more-90% inhibition) | 5 (90% or more inhibition) | 4 (70% or more-90% inhibition) | 5 (90% or more inhibition) | 5 (90% or more inhibition) | 5 (90% or more inhibition) | 4 (70% or more-90% inhibition) | 5 (90% or more inhibition)
O=C(NS(=O)(=O)c1c(Cl)cccc1Cl)c1cccc(Cl)n1 [Compound I-591, N-[(2,6-Dichlorophenyl)sulfonyl]-6-chloro-2-pyridinecarboxamide] | 5 (90% or more inhibition) | 5 (90% or more inhibition) | 5 (90% or more inhibition) | 5 (90% or more inhibition) | 5 (90% or more inhibition) | 1 (less than 30% inhibition) | 5 (90% or more inhibition) | 5 (90% or more inhibition) | 5 (90% or more inhibition) | 5 (90% or more inhibition) | 5 (90% or more inhibition)
COc1ccc(C(=O)NS(=O)(=O)c2c(Cl)cccc2Cl)nc1 [Compound I-594, N-[(2,6-Dichlorophenyl)sulfonyl]-5-methoxy-2-pyridinecarboxamide] | 4 (70% or more-90% inhibition) | 2 (30% or more-50% inhibition) | 5 (90% or more inhibition) | 4 (70% or more-90% inhibition) | 4 (70% or more-90% inhibition) | 2 (30% or more-50% inhibition) | 5 (90% or more inhibition) | 2 (30% or more-50% inhibition) | 2 (30% or more-50% inhibition) | 4 (70% or more-90% inhibition) | 4 (70% or more-90% inhibition)
COc1cc(Cl)nc(C(=O)NS(=O)(=O)c2c(Cl)cccc2Cl)c1 [Compound I-615, 6-Chloro-N-[(2,6-Dichlorophenyl)sulfonyl]-4-methoxypyridine-2-carboxamide] | 5 (90% or more inhibition) | 4 (70% or more-90% inhibition) | 5 (90% or more inhibition) | 4 (70% or more-90% inhibition) | 5 (90% or more inhibition) | 4 (70% or more-90% inhibition) | 5 (90% or more inhibition) | 4 (70% or more-90% inhibition) | 5 (90% or more inhibition) | 5 (90% or more inhibition) | 5 (90% or more inhibition)
COc1ccc(C(=O)NS(=O)(=O)c2c(Cl)cccc2Cl)nc1Cl [Compound I-618, N-[(2,6-Dichlorophenyl)sulfonyl]-6-chloro-5-methoxy-2-pyridinecarboxamide] | 5 (90% or more inhibition) | 3 (50% or more-70% inhibition) | 5 (90% or more inhibition) | 5 (90% or more inhibition) | 4 (70% or more-90% inhibition) | 2 (30% or more-50% inhibition) | 5 (90% or more inhibition) | 2 (30% or more-50% inhibition) | 5 (90% or more inhibition) | 5 (90% or more inhibition) | 5 (90% or more inhibition)
COc1cc(Cl)nc(C(=O)NS(=O)(=O)c2ccccc2Cl)c1 [Compound I-705, N-[(2-Chlorophenyl)sulfonyl]-6-chloro-4-methoxypyridine-2-carboxamide] | 5 (90% or more inhibition) | 5 (90% or more inhibition) | 5 (90% or more inhibition) | 4 (70% or more-90% inhibition) | 4 (70% or more-90% inhibition) | 3 (50% or more-70% inhibition) | 5 (90% or more inhibition) | 4 (70% or more-90% inhibition) | 4 (70% or more-90% inhibition) | 2 (30% or more-50% inhibition) | 4 (70% or more-90% inhibition)
O=C(NS(=O)(=O)c1ccccc1OC(F)(F)F)c1cccc(Cl)n1 [Compound I-771, N-[[2-Trifluoromethoxyphenyl]sulfonyl]-6-chloro-2-pyridinecarboxamide] | 5 (90% or more inhibition) | 4 (70% or more-90% inhibition) | 5 (90% or more inhibition) | 5 (90% or more inhibition) | 5 (90% or more inhibition) | 1 (less than 30% inhibition) | 5 (90% or more inhibition) | 5 (90% or more inhibition) | 5 (90% or more inhibition) | 5 (90% or more inhibition) | 5 (90% or more inhibition)
COc1ccc(C(=O)NS(=O)(=O)c2ccccc2OC(F)(F)F)nc1 [Compound I-774, N-[(2-Trifluoromethoxyphenyl)sulfonyl]-5-methoxy-2-pyridinecarboxamide] | 5 (90% or more inhibition) | 4 (70% or more-90% inhibition) | 5 (90% or more inhibition) | 5 (90% or more inhibition) | 4 (70% or more-90% inhibition) | 5 (90% or more inhibition) | 5 (90% or more inhibition) | 4 (70% or more-90% inhibition) | 5 (90% or more inhibition) | 5 (90% or more inhibition) | 5 (90% or more inhibition)
COc1ccc(C(=O)NS(=O)(=O)c2ccccc2OC(F)(F)F)nc1[N+](=O)[O-] [Compound I-778] | 5 (90% or more inhibition) | 5 (90% or more inhibition) | 5 (90% or more inhibition) | 2 (30% or more-50% inhibition) | 4 (70% or more-90% inhibition) | 3 (50% or more-70% inhibition) | 3 (50% or more-70% inhibition) | 4 (70% or more-90% inhibition) | 5 (90% or more inhibition) | 5 (90% or more inhibition) | 5 (90% or more inhibition)

— patent publication US6610853B1, “N-(phenylsulfonyl)picolinamide derivatives, process for producing the same, and herbicide” (Kureha Kagaku Kogyo K.K., priority 2000, dated 2003)
